Laboratory results taken from patent US9695218B2, “Pharmaceutical composition for preventing or treating ocular surface disease” (INJE UNIVERSITY INDUSTRY-ACADEMIC COOPERATION FOUNDATION, priority 2014, dated 2017).

Columns and labels:
Type in all cases: in vivo, New Zealand white rabbits
[1] = tested on: cornea of alkaline burn rabbit; experiment: Clinical evaluation of corneal angiogenesis and opacification in corneal alkaline burn rabbit model; settings: 10 mg/mL instilled 4 times per day for 10 days, day 17 after alkaline burn; for corneal opacity score (graded 0 through 3): mean±SD, n=5, saline control 3.0±0.0
Description: (§1) 15 New Zealand white rabbits weighing between 2.0 kg and 2.5 kg were purchased from Samtako (Osan, Korea), and then, were subjected to systemic anesthesia by intramuscular injection of a mixture of ketamine hydrochloride (30 mg/kg body weight, Huons, Jecheon, Korea) and xylazine hydrochloride (2.5 mg/kg, Bayer Korea Ltd., Seoul, Korea) and to topical anesthesia by Alcaine propracaine eye drops (Alcon Inc., Seoul, Korea).
(§2) Afterwards, alkaline burn model was developed by applying an 8 mm filter paper soaked in 1 N NaOH to the right central corneas of rabbits for 1 minute. 7 days later, an increase in corneal angiogenesis and corneal opacity upon alkaline burns was confirmed.
(§3) The rabbits were randomly divided into three groups: the alkaline burn group (n=5), the peptide I group (n=5), and the peptide II group (n=5). The alkaline burn group was treated with saline instilled thereto 4 times per day, the peptide I group was treated with 10 mg/mL of peptide SEQ ID NO: 1 instilled thereto 4 times per day, and the peptide II was treated with 10 mg/mL of peptide SEQ ID NO: 2 instilled thereto 4 times per day. The left eyes were used as controls.
7 days after the corneal alkaline burns, clinical evaluation of corneal angiogenesis and opacification was performed.
First, the extent of corneal angiogenesis was scored from 0 through 3, where 0 denotes no angiogenesis, 1 denotes angiogenesis confined to the corneal periphery, 2 denotes angiogenesis extending up to the pupil margin, and 3 denotes angiogenesis extending beyond the pupil margin into the central cornea. In eyes where significant opacification or extensive symblepharon formation caused difficulties in evaluating corneal angiogenesis, a score of 3 was assigned.
In addition, the severity of corneal opacification was graded from 0 through 3, where 0 denotes clear cornea with iris details clearly visualized, 1 denotes partial obscuration of the iris details, 2 denotes iris details poorly seen with the pupil margin just visible, and 3 denotes complete obscuration of iris and pupil details. […]

[2] = tested on: cornea of alkaline burn rabbit; experiment: H&E staining for histological changes in cornea following alkaline burn; settings: 10th day after treatment, 10 mg/mL instilled 4 times per day
Description: as §1, §2, §3
(§4) On the 10th day after the treatment as described above, the H&E staining, the Masson's trichrome staining, and immunohistochemistry were performed to observe the fibrosis, angiogenesis, inflammation, and structural changes of the cornea. […]

[3] = tested on: cornea of alkaline burn rabbit; experiment: Corneal thickness of H&E-stained tissue sections in corneal alkaline burn rabbit model; settings: 10th day after treatment, 10 mg/mL instilled 4 times per day, normal 628.0±13.2, alkali burn control 1078.0±30.8
Description: as §1, §2
as §3, with “controls. […]” for “controls.”
The corneal thickness of the tissue sections was measured using photographs obtained by the H&E staining and taken with a virtual microscope (NanoZoomer 2.0 RS, Hamamatsu, Japan) according to the NDP view program (Hamamatsu, USA).

[4] = tested on: fibroblast in the stroma of alkaline burn rabbit cornea; experiment: Masson's trichrome staining for fibrotic changes of the cornea following alkali burns; settings: 10th day after treatment, 10 mg/mL instilled 4 times per day
Description: as §1, §2, §3, §4

[5] = tested on: NF-κB; experiment: Immunohistochemistry of NF-κB in alkaline burn rabbit cornea; settings: 10 mg/mL instilled 4 times per day, 10th day, compared to peptide I treatment
Description: (§5) Ocular tissue sections of an alkaline burn animal model were cut to a thickness of 6 μm, and then, the tissue sections were used for immunohistochemical analysis.
(§6) First, the tissue sections were fixed in 3.5% paraformaldehyde, permeabilized with 0.1% Triton X-100, blocked with 2% bovine serum albumin (BSA; all from Sigma, St. Louis, Mo.), and incubated overnight with the following primary antibodies; anti-CD31 (1:1,000; Abcam Inc., Cambridge, Mass.), anti-MMP-9, anti-ICMA-1, anti-VCAM-1 (1:1,000; from Bioss Antibodies, Woburn, Mass.), anti-TNFα, anti-NF-κB (1:1,000; all from biorbyt LLC, San Franciso, Calif.) anti-macrophage/monocyte (Abnova Crop., Taipei, Taiwan), and anti-VEGF-A (Abbiotec, San Diego, Calif.).
(§7) Next, the tissue sections were incubated with a secondary antibody for 45 minutes. The immunological reactions therein were visualized with diaminobenzidine (DAB) chromogen, and the tissue sections were counterstained with Mayer's hematoxylin (Sigma) for 30 seconds at room temperature.
(§8) The sections were photographed with a virtual microscope (virtual microscope; NanoZoomer 2.0 RS, Hamamatsu, Japan).
(§9) The rabbits were randomly divided into three groups: the alkaline burn group (n=5), the peptide I group (n=5), and the peptide II group (n=5). […]

[6] = tested on: macrophages; experiment: Immunohistochemistry of macrophages in alkaline burn rabbit cornea; settings: 10 mg/mL instilled 4 times per day, 10th day
Description: as §5, §6, §7, §8, §9

[7] = tested on: ICAM-1; experiment: Immunohistochemistry of inflammatory marker ICAM-1 in alkaline burn rabbit cornea; settings: 10 mg/mL instilled 4 times per day, 10th day
Description: as §5, §6, §7, §8, §9

[8] = tested on: MMP-9; experiment: Immunohistochemistry of inflammatory marker MMP-9 in alkaline burn rabbit cornea; settings: 10 mg/mL instilled 4 times per day, 10th day, compared to the peptide I group
Description: as §5, §6, §7, §8, §9

[9] = tested on: VCAM-1; experiment: Immunohistochemistry of inflammatory marker VCAM-1 in alkaline burn rabbit cornea; settings: 10 mg/mL instilled 4 times per day, 10th day
Description: as §5, §6, §7, §8, §9

[10] = tested on: VEGF; experiment: Immunohistochemistry of angiogenic marker VEGF in alkaline burn rabbit cornea; settings: 10 mg/mL instilled 4 times per day, 10th day, compared with the peptide I group
Description: as §5, §6, §7, §8, §9

[11] = tested on: TNFα; experiment: Immunohistochemistry of inflammatory marker TNFα in alkaline burn rabbit cornea; settings: 10 mg/mL instilled 4 times per day, 10th day
Description: as §5, §6, §7, §8, §9

[12] = tested on: CD31; experiment: Immunohistochemistry of angiogenic marker CD31 in alkaline burn rabbit cornea; settings: 10 mg/mL instilled 4 times per day, 10th day, compared with the peptide I group
Description: as §5, §6, §7, §8, §9

| Substance | corneal opacity score (graded 0 through 3) [1] | histological alterations (epithelial proliferation, infiltration of inflammatory cells, stromal edema, angiogenesis; H&E) [2] | corneal thickness [3] | fibrotic changes / population of fibroblast in stroma (Masson's trichrome) [4] | expression of NF-κB in stroma [5] | corneal angiogenesis (scored 0 through 3) ([1]; compared to the control group (2.7±0.5)) | expression of macrophages [6] | expression of ICAM-1 [7] | expression of MMP-9 [8] | expression of VCAM-1 [9] | expression of VEGF in epithelium, subepithelium and stroma [10] | expression of TNFα [11] | expression of CD31 in epithelium, subepithelium and stroma [12] |
| --- | --- | --- | --- | --- | --- | --- | --- | --- | --- | --- | --- | --- | --- |
| GDRGD (Collagen type I, alpha 1) [peptide I, collagen type I α1 based peptide from CDEM, synthesized; used as comparative group] | 2.1±0.3 | little effect | 1066.0±31.7 μm | little effect on the fibrotic changes |  |  |  |  |  |  |  |  |  |
| GQDGLAGPK (Collagen type II, alpha 1) [peptide II, collagen type II α1 based peptide isolated from chondrocyte-derived extracellular matrix (CDEM), synthesized] | 1.9±0.6 | improved | 876.0±37.0 μm | significantly suppressed the population of fibroblast | decreased | decreased angiogenesis | effectively suppressed | decreased | suppressed | decreased | significantly decreased | decreased | significantly decreased |
